According to patent publication EP3154958B1, “PHOSPHATIDYLINOSITOL 3-KINASE INHIBITORS” (Gilead Sciences, Inc., priority 2014, dated 2015):
Read-outs that look alike come from different tables or passages of the source.

Legend:
Assay type in all cases: biochemical
[1] = biological target: T1, PI3Kβ (Homo sapiens, UniProt P42338); assay: TR-FRET enzymatic activity assay, PI3Kβ
T1 construct: made in house
Method: (§1) The compounds of formula (I) were characterized for their enzymatic activity against the PI3K isoforms. The activities were measured using a time-resolved fluorescence resonance energy transfer (TR-FRET) assay.

[2] = biological target: T2, PI3Kδ (Homo sapiens, UniProt O00329); assay: TR-FRET enzymatic activity assay, PI3Kδ
T2 construct: made in house
T2 sequence (O00329 whole entry): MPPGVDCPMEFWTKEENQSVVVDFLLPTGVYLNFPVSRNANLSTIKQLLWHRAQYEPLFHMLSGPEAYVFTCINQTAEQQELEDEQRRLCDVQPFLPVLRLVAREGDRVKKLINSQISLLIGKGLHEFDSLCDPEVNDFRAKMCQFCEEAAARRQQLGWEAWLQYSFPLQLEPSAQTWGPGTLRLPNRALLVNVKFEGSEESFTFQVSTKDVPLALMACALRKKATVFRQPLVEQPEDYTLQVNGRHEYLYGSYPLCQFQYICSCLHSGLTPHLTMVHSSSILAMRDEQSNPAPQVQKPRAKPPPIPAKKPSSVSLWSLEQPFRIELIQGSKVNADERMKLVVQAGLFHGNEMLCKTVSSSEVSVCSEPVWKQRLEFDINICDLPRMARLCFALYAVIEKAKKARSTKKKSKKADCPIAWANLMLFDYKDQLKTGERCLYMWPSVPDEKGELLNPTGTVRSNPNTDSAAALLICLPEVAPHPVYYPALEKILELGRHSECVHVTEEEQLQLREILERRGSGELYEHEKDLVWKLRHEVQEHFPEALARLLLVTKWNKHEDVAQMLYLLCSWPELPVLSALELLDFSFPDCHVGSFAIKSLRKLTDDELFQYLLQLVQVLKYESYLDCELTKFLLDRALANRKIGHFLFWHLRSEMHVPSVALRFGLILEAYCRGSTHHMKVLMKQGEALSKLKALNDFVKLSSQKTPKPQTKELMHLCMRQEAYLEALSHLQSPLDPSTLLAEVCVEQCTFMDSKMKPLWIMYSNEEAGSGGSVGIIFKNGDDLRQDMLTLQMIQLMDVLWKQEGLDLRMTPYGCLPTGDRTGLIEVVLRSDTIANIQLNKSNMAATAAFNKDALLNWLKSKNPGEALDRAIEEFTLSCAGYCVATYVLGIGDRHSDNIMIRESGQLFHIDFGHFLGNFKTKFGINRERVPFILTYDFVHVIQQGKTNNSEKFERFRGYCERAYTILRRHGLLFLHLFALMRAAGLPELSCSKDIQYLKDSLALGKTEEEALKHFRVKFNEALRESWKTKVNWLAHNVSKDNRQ
T2 sequence (P27986 whole entry partner): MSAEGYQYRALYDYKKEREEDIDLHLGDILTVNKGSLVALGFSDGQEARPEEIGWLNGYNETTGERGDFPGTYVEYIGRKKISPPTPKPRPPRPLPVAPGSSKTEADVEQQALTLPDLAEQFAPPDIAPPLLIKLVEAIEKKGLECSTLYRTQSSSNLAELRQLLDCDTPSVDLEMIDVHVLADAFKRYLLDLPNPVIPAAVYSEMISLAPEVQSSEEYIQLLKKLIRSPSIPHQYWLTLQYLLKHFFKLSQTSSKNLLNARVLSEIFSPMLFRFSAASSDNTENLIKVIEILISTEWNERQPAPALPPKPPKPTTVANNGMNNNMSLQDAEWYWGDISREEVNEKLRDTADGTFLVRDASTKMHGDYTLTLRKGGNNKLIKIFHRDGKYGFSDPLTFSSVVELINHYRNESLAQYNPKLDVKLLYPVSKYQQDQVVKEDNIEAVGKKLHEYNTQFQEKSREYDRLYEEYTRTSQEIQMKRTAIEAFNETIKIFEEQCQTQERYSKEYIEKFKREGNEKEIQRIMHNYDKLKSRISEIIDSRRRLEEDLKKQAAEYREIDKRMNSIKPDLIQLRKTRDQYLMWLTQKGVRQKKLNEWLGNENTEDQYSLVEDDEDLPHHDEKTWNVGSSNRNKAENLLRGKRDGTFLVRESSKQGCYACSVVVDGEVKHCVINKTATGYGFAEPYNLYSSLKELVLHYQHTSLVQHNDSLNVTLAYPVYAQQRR
Method: as §1

[3] = biological target: T3, PI3Kγ (Homo sapiens, UniProt P48736); assay: TR-FRET enzymatic activity assay, PI3Kγ
T3 construct: made in house
T3 sequence (P48736 whole entry): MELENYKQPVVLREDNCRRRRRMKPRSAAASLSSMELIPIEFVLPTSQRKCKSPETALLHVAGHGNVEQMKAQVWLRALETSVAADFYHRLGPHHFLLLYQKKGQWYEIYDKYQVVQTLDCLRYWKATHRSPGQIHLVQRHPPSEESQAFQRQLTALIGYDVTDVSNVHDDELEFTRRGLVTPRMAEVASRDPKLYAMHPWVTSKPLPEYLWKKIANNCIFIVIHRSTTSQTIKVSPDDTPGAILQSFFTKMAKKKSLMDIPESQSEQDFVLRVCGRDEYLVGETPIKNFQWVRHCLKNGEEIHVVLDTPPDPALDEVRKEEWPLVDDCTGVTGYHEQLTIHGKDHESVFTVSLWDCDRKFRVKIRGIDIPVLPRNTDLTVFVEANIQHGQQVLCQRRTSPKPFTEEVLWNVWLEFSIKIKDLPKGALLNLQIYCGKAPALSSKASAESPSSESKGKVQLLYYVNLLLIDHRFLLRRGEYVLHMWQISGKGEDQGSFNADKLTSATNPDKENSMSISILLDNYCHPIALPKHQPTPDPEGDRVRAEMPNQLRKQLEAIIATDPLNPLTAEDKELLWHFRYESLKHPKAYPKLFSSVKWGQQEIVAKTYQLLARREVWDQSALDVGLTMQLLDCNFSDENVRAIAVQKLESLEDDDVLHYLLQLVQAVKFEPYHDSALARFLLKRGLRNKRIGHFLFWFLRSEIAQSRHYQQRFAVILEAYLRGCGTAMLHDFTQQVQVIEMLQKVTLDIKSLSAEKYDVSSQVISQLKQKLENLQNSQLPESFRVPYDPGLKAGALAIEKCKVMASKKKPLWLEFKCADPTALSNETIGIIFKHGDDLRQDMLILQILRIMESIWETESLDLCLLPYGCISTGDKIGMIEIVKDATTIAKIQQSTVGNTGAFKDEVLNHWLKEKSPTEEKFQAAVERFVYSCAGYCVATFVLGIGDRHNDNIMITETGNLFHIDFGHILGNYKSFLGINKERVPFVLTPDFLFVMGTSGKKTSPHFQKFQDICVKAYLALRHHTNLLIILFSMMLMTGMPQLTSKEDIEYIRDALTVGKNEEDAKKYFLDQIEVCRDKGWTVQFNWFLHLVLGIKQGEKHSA
T3 sequence (Q8WYR1 whole entry partner): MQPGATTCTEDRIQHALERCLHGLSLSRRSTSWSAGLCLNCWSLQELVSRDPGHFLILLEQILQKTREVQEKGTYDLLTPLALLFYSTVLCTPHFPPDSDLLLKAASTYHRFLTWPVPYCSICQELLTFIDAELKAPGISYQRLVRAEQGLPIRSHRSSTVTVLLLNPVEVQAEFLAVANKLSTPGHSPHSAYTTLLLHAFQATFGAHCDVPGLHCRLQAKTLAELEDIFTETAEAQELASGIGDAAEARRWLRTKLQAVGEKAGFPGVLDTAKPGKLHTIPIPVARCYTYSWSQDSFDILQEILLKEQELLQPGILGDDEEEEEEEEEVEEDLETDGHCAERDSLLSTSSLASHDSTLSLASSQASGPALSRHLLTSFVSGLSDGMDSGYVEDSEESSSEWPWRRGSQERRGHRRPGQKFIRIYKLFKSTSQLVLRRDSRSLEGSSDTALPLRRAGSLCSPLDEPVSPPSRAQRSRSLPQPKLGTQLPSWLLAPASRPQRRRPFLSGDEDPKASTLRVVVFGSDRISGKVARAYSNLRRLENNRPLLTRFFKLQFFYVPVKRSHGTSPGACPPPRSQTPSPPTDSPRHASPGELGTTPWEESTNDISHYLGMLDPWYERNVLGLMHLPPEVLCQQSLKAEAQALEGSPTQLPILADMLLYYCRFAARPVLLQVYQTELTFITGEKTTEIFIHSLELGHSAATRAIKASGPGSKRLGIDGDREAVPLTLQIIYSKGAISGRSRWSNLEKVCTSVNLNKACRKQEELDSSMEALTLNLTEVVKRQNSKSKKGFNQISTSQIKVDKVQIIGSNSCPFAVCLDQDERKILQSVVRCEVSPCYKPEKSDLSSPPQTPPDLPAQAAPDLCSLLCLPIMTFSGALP
Method: as §1

[4] = recombinant heterodimeric PI3Kβ 25-50 pM, 2× Km ATP, 30 minutes at 25°C
[5] = recombinant heterodimeric PI3Kδ 25-50 pM, 2× Km ATP, 30 minutes at 25°C
[6] = recombinant heterodimeric PI3Kγ 2 nM, 2× Km ATP, 30 minutes at 25°C

T1 sequence (P42338 whole entry): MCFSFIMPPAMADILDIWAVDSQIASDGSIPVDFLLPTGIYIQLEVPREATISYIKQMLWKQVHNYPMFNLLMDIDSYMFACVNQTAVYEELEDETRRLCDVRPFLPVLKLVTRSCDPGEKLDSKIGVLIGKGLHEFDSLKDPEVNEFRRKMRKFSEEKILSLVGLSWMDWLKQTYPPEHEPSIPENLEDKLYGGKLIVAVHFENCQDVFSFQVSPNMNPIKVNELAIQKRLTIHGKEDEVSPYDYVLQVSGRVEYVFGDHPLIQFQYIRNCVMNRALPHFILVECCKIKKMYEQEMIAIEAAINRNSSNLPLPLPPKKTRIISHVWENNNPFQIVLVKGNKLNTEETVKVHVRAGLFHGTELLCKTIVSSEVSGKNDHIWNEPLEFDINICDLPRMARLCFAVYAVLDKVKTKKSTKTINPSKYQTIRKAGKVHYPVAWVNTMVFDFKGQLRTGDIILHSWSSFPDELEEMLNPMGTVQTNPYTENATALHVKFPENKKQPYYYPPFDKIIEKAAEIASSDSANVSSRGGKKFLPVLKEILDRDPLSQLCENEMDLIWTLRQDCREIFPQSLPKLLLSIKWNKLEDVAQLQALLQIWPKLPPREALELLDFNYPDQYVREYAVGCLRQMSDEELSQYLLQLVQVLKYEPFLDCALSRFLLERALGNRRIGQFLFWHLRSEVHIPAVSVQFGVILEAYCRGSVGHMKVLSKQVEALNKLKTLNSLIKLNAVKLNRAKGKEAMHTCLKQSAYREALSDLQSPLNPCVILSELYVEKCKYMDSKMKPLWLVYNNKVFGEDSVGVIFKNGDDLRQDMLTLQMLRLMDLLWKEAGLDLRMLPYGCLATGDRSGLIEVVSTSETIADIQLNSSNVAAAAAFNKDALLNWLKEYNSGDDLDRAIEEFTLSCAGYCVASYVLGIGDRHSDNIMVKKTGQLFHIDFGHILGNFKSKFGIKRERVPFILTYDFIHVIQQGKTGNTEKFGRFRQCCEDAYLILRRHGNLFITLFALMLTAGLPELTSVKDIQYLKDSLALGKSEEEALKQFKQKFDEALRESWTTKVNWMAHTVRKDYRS
T1 sequence (P27986 whole entry partner): as the sequence (P27986 whole entry partner) above

Row | Structure (SMILES) | IC50 [1, 4] [nM] | IC50 [2, 5] [nM] | IC50 [3, 6] [nM] | IC50 [1] [nM] | IC50 [2] [nM] | IC50 [3] [nM]
1 | C[C@H](Nc1nc(N)nc(N)c1C#N)c1nc2cccc(Cl)c2c(=O)n1C1CCN(Cc2ccccc2)CC1 [Compound 101, (S)-2,4-diamino-6-((1-(3-(1-benzylpiperidin-4-yl)-5-chloro-4-oxo-3,4-dihydroquinazolin-2-yl)ethyl)amino)pyrimidine-5-carbonitrile] | 44 | 21 | 4200 | – | – | –
2 | C[C@H](Nc1nc(N)nc(N)c1C#N)c1nc2cccc(Cl)c2c(=O)n1C1[C@H]2CNC[C@@H]12 (stereo in doubt) [Compound 19, 4-(((1S)-1-(3-((1R,5S)-3-azabicyclo[3.1.0]hexan-6-yl)-5-chloro-4-oxo-3,4-dihydroquinazolin-2-yl)ethyl)amino)-2,6-diaminopyrimidine-5-carbonitrile] | – | – | – | 3 | 1 | 1200
3 | C[C@H](Nc1nc(N)nc(N)c1C#N)c1nc2cccc(Cl)c2c(=O)n1N1CCNCC1 [Compound 57, (S)-2,4-diamino-6-((1-(5-chloro-4-oxo-3-(piperazin-1-yl)-3,4-dihydroquinazolin-2-yl)ethyl)amino)pyrimidine-5-carbonitrile] | – | – | 710 | – | – | –
4 | Cc1nc(N)nc(N[C@@H](C)c2nc3cccc(Cl)c3c(=O)n2[C@@H]2CCCNCC2)c1C#N [Compound 11, 2-amino-4-(((S)-1-(3-((R)-azepan-4-yl)-5-chloro-4-oxo-3,4-dihydroquinazolin-2-yl)ethyl)amino)-6-methylpyrimidine-5-carbonitrile] | – | – | > 10000 | – | – | –
5 | C[C@H](Nc1nc(N)nc(N)c1C#N)c1nc2c(Cl)ccc(Cl)c2c(=O)n1N1CCNCC1 [Compound 53, (S)-2,4-diamino-6-((1-(5,8-dichloro-4-oxo-3-(piperazin-1-yl)-3,4-dihydroquinazolin-2-yl)ethyl)amino)pyrimidine-5-carbonitrile] | 4 | 3 | – | 27 | 6 | –

The remaining lines, values ahead:

Row | IC50 [1, 4] [nM] | IC50 [2, 5] [nM] | IC50 [3, 6] [nM] | IC50 [1] [nM] | IC50 [2] [nM] | IC50 [3] [nM] | Structure (SMILES)
6 | 62 | 2 | > 10000 | – | – | – | C[C@H](Nc1nc(N)nc(N)c1C#N)c1nc2cccc(Cl)c2c(=O)n1[C@H]1CCCNCC1 [Compound 8, 2,4-diamino-6-(((S)-1-(3-((S)-azepan-4-yl)-5-chloro-4-oxo-3,4-dihydroquinazolin-2-yl)ethyl)amino)pyrimidine-5-carbonitrile]
7 | 5600 | 830 | > 10000 | – | – | – | C[C@H](Nc1nc(N)nc(N)c1C#N)c1nc2cccc(Cl)c2c(=O)n1[C@@H]1CCCNC1 (stereo in doubt) [Compound 27, 2,4-diamino-6-(((S)-1-(5-chloro-4-oxo-3-((R)-piperidin-3-yl)-3,4-dihydroquinazolin-2-yl)ethyl)amino)pyrimidine-5-carbonitrile]
8 | 10000 | 57 | > 10000 | – | – | – | CC[C@H](Nc1nc(N)nc(N)c1C#N)c1nc2cccc(Cl)c2c(=O)n1N1CCN(Cc2ccc(C(F)(F)F)cc2)CC1 [Compound 87, (S)-2,4-diamino-6-((1-(5-chloro-4-oxo-3-(4-(4-(trifluoromethyl)benzyl)piperazin-1-yl)-3,4-dihydroquinazolin-2-yl)propyl)amino)pyrimidine-5-carbonitrile]
9 | 480 | 22 | > 10000 | – | – | – | C[C@H](Nc1ncnn2ccnc12)c1nc2cccc(Cl)c2c(=O)n1C1CCCNCC1 (stereo partly drawn) [Compound 82, 3-(azepan-4-yl)-5-chloro-2-((S)-1-(imidazo[2,1-f][1,2,4]triazin-4-ylamino)ethyl)quinazolin-4(3H)-one]
10 | – | – | > 10000 | – | – | – | Cc1nc(N)nc(N[C@@H](C)c2nc3cccc(Cl)c3c(=O)n2[C@H]2CCCNCC2)c1C#N [Compound 10, 2-amino-4-(((S)-1-(3-((S)-azepan-4-yl)-5-chloro-4-oxo-3,4-dihydroquinazolin-2-yl)ethyl)amino)-6-methylpyrimidine-5-carbonitrile]
11 | 21 | 230 | – | – | – | – | C[C@H](NC(=O)c1nccnc1N)c1nc2cccc(Cl)c2c(=O)n1N1CCNCC1 [Compound 56, (S)-3-amino-N-(1-(5-chloro-4-oxo-3-(piperazin-1-yl)-3,4-dihydroquinazolin-2-yl)ethyl)pyrazine-2-carboxamide]
